Legend:
[1] = tested on: UGT enzymes of pooled human jejunum microsomes; experiment: Inhibition of raloxifene glucuronidation (G1, G2) in pooled human jejunum microsomes; type: biochemical; conditions: jejunum HJ61; inhibitor 50 μM
Experimental: Compounds were eluted using a binary solvent gradient system. […] Solvent B was methanol. […] Detection was at 280 nm.
Standardized incubations utilized […] microsomal protein, 1 mM UDPGA and a 30 min incubation time.

[2] = molecular target: T1, UGT enzymes of human liver microsomes (Homo sapiens, UniProt P16662); experiment: Inhibition of zidovudine glucuronidation in human liver microsomes; type: biochemical; conditions: liver lot 062101
T1 construct: residual metabolism (percentage of control), zidovudine glucuronidation; other: liver lot 062101; residual metabolism (percentage of control), zidovudine glucuronidation; residual metabolism (percentage of control)
T1 sequence (P16662 1-529): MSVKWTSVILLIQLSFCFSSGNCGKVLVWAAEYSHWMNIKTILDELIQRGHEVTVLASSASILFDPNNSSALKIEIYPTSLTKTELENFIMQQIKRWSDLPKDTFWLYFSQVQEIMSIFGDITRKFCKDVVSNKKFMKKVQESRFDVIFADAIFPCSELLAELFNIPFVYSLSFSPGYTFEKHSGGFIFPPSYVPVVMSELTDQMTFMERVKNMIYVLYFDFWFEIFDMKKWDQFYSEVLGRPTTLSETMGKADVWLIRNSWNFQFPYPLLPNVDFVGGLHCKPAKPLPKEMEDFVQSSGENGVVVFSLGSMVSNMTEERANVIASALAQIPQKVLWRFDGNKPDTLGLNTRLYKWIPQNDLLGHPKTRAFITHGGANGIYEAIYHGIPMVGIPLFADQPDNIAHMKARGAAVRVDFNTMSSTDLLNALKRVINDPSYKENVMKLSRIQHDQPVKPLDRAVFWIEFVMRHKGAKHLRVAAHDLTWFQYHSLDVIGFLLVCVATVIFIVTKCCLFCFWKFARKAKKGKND
Experimental: Compounds were eluted using a binary solvent gradient system where solvent A was dilute phosphoric acid (pH 3) and solvent B was acetonitrile.
Standardized incubations utilized 500 μM zidovudine substrate, 1 mg/ml microsomal protein, 5 mM UDPGA and a 30 min incubation time. […] Int.

[3] = tested on: UGT enzymes of human liver microsomes; experiment: Inhibition of estradiol (E2) glucuronidation in human liver microsomes; type: biochemical; conditions: E2 50 μM
Source text: (§1) Compounds were eluted using a binary solvent gradient system where solvent A was dilute phosphoric acid (pH 3) and solvent B was 80:20 acetonitrile-methanol. […] Detection was at 280 nm.

[4] = tested on: T2, UGT enzymes of human liver microsomes; experiment: as above; type: biochemical; conditions: liver 032101, E2 50 μM
T2 construct: residual metabolism (% of control), E2-17-β-D-glucuronide; other: liver 032101; residual metabolism (% of control), E2-17-β-D-glucuronide
Source text: as §1

[5] = tested on: T3, UGT enzymes of human liver microsomes; experiment: as above; type: biochemical; conditions: liver 032101, E2 50 μM
T3 construct: residual metabolism (% of control), E2-3-β-D-glucuronide; other: liver 032101; residual metabolism (% of control), E2-3-β-D-glucuronide
Source text: as §1

[6] = tested on: UGT enzymes of pooled human jejunum microsomes; experiment: Inhibition of 2ME2 glucuronidation (MG1) in pooled human jejunum microsomes; type: biochemical; conditions: jejunum HJ61, 2ME2 50 μM
Source text: as §1

UGT1A8 = molecular target: T4, UGT1A8 (Homo sapiens, UniProt Q9HAW9); experiment: Inhibition of raloxifene glucuronidation by recombinant UGT1A8 Supersomes; conditions: UGT1A8
T4 sequence (Q9HAW9 26-530): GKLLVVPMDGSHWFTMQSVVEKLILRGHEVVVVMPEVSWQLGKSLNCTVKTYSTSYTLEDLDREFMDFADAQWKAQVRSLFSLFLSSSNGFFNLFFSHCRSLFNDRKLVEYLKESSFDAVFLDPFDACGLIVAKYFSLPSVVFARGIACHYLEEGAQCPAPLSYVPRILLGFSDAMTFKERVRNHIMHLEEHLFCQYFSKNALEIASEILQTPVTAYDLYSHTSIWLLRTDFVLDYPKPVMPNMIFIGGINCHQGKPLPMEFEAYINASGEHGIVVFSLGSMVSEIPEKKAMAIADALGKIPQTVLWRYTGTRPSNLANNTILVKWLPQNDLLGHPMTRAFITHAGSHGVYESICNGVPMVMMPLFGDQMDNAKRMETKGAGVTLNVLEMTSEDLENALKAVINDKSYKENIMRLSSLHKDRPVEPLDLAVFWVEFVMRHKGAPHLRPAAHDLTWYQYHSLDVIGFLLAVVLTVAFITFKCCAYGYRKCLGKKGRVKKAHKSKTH
Experimental: Compounds were eluted using a binary solvent gradient system. Solvent A was water brought to pH 8 with NH4OH. Solvent B was methanol. Solvent flow rate was 1 ml/min and the column temperature was maintained at 50° C. Detection was at 280 nm. […] The system was then returned to the initial conditions and equilibrated for 3 min.

UGT1A9 = molecular target: T5, UGT1A9 (Homo sapiens, UniProt O60656); experiment: Inhibition of raloxifene glucuronidation by recombinant UGT1A9 Supersomes; conditions: for activity at 15 min, 10 µM / activity at 15 min, 25 µM / activity at 15 min, 50 µM: human, Supersomes with recombinant human UGT1A9, pH 7.5, probe raloxifene 50 μM; for Inhibition of raloxifene glucuronidation, UGT1A9, second line per inhibitor (G2): second line (G2, metabolite not given), raloxifene 50 μM, 250 μg/ml Supersomes, 1 mM UDPGA, 15 min
T5 sequence (O60656 26-530): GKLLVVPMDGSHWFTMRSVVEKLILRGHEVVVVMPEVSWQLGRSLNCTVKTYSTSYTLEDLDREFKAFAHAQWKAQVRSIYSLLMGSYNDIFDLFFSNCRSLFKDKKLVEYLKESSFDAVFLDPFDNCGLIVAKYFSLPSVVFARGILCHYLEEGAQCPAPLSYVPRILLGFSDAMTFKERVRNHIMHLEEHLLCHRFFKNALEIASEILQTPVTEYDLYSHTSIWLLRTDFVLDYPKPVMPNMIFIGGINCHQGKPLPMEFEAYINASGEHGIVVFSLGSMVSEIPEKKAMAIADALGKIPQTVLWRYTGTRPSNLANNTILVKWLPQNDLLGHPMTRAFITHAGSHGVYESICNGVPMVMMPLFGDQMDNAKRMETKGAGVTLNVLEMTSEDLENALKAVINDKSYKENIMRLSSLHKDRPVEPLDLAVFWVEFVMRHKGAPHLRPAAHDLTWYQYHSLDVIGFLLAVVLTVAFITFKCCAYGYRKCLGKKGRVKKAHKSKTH

O=c1c(O)c(-c2ccc(O)c(O)c2)oc2cc(O)cc(O)c12 [Quercetin]
% of control metabolism, raloxifene G1 [1]: 25 (1) %
% of control metabolism, raloxifene G2 [1]: 37 (2) %
residual metabolism (percentage of control), zidovudine glucuronidation ([2]; inhibitor 100 μM): 94 (8) %
residual metabolism (percentage of control), zidovudine glucuronidation ([2]; inhibitor 200 μM): 64 (4) %
residual metabolism (% of control), E2-3-β-D-glucuronide ([3]; liver 032101, inhibitor 25 μM): 58 (1) %
residual metabolism (% of control), E2-17-β-D-glucuronide ([3]; liver 032101, inhibitor 25 μM): 94 (3) %
residual metabolism (% of control), E2-3-β-D-glucuronide ([3]; liver 062101, inhibitor 25 μM): 56 (3) %
residual metabolism (% of control), E2-17-β-D-glucuronide ([3]; liver 062101, inhibitor 25 μM): 83 (1) %
residual metabolism (% of control), E2-3-β-D-glucuronide ([3]; liver 062101, inhibitor 50 μM): 30 (1) %
residual metabolism (% of control), E2-17-β-D-glucuronide ([3]; liver 062101, inhibitor 50 μM): 69 (1) %
residual metabolism (% of control), E2-3-β-D-glucuronide ([3]; liver 062101, inhibitor 100 μM): 19 (1) %
residual metabolism (% of control), E2-17-β-D-glucuronide ([3]; liver 062101, inhibitor 100 μM): 57 (2) %
residual metabolism (% of control), E2-17-β-D-glucuronide ([4]; inhibitor 50 μM): 72 (6) %
residual metabolism (% of control), E2-17-β-D-glucuronide ([4]; inhibitor 100 μM): 50 (3) %
residual metabolism (% of control), E2-3-β-D-glucuronide ([5]; inhibitor 50 μM): 29 (1) %
residual metabolism (% of control), E2-3-β-D-glucuronide ([5]; inhibitor 100 μM): 10 (1) %
residual metabolism (% of control), 2ME2 MG1 ([6]; inhibitor 25 μM): 56 (2) %
residual metabolism (% of control), 2ME2 MG1 ([6]; inhibitor 50 μM): 44 (2) %
residual metabolism (% of control), 2ME2 MG1 ([6]; inhibitor 100 μM): 19 (1) %
inhibition of raloxifene glucuronidation, in words (UGT1A8): ineffective
inhibition of raloxifene glucuronidation, in words (UGT1A9; UGT1A9): good inhibitor
activity at 15 min, 10 µM (UGT1A9; formation of glucuronide G1, % of control metabolism, raloxifene G1, UGT1A9, inhibitor 10 μM): 59%
activity at 15 min, 25 µM (UGT1A9; formation of glucuronide G1, % of control metabolism, raloxifene G1, UGT1A9, inhibitor 25 μM): 45%
activity at 15 min, 50 µM (UGT1A9; formation of glucuronide G1, % of control metabolism, raloxifene G1, UGT1A9, inhibitor 50 μM): 26%
activity at 15 min, 10 µM (UGT1A9; formation of glucuronide G2, % of control metabolism, raloxifene G2, UGT1A9, inhibitor 10 μM): 56%
activity at 15 min, 25 µM (UGT1A9; formation of glucuronide G2, % of control metabolism, raloxifene G2, UGT1A9, inhibitor 25 μM): 39%
activity at 15 min, 50 µM (UGT1A9; formation of glucuronide G2, % of control metabolism, raloxifene G2, UGT1A9, inhibitor 50 μM): 24%
Inhibition of raloxifene glucuronidation, UGT1A9, second line per inhibitor (G2) (UGT1A9; inhibitor 5 μM): 85 (5)
Inhibition of raloxifene glucuronidation, UGT1A9, second line per inhibitor (G2) (UGT1A9; inhibitor 10 μM): 56 (3)
Inhibition of raloxifene glucuronidation, UGT1A9, second line per inhibitor (G2) (UGT1A9; inhibitor 25 μM): 39 (2)
Inhibition of raloxifene glucuronidation, UGT1A9, second line per inhibitor (G2) (UGT1A9; inhibitor 50 μM): 24 (2)
